Here are results for 30 compounds from ChEMBL document CHEMBL5113402, “Inhibition of cytochrome P450 monooxygenase-catalyzed oxylipin formation by flavonoids: Evaluation of structure-activity relationship towards CYP4F2-selective inhibitors” (Eur J Med Chem, 2022).

The species entered for one series is Homo sapiens. As to the kind of experiment: Selectivity index, log ratio of Inhibition of CYP450 in human liver microsomes assessed as inhibition of EpETrE formation in presence of arachidonic acid to Inhibition of CYP450 in human liver microsomes assessed as inhibition of 20-HETE formation in presence of arachidonic acid. In general terms: Liver microsomes are vesicles of endoplasmic reticulum, rich in cytochrome P450 enzymes.

Series [1] deals with CYP450 (EpETrE formation) (Homo sapiens, UniProt P04798+P05177+P05181+P08684+P10632+P10635+P11509+P11712+P13584+P20813+P20815+P20853+P24462+P24903+P33260+P33261+P51589+P78329+P98187+Q02928+Q08477+Q16678+Q16696+Q5TCH4+Q6VVX0+Q7Z449+Q8TAV3+Q96SQ9+Q9HB55). In words: Inhibition of CYP450 in human liver microsomes assessed as inhibition of EpETrE formation at 10 uM in presence of arachidonic acid and NADPH by multi-enzyme assay based LC-MS/MS analysis relative to control. Type of series: ADME, Microsome. The settings on record: probe arachidonic acid.

In series [2] the target is CYP450 (20-HETE formation) (Homo sapiens, UniProt P04798+P05177+P05181+P08684+P10632+P10635+P11509+P11712+P13584+P20813+P20815+P20853+P24462+P24903+P33260+P33261+P51589+P78329+P98187+Q02928+Q08477+Q16678+Q16696+Q5TCH4+Q6VVX0+Q7Z449+Q8TAV3+Q96SQ9+Q9HB55). In words: Inhibition of CYP450 in human liver microsomes assessed as inhibition of 20-HETE formation at 10 uM in presence of arachidonic acid and NADPH by multi-enzyme assay based LC-MS/MS analysis relative to control. Type of series: ADME, Microsome. The settings on record: probe arachidonic acid.

The target of the next series is T1, Cytochrome P450 4F2 (Homo sapiens, UniProt P78329).
T1 sequence (P78329 whole entry): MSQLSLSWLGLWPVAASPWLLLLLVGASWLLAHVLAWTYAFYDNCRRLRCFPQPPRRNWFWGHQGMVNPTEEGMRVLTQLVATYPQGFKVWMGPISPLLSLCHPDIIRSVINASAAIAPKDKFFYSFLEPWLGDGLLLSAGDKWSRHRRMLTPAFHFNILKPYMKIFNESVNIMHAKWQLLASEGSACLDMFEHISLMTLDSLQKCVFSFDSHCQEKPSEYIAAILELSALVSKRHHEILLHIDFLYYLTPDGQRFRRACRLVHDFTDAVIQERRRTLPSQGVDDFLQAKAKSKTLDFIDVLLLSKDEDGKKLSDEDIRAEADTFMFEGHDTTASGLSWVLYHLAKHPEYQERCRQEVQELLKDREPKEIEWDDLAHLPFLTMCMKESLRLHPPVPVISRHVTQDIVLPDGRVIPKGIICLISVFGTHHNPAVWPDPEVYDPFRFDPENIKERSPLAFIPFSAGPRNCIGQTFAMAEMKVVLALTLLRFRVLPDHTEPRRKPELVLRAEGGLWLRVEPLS
In words: Inhibition of recombinant CYP4F2 (unknown origin) incubated for 5 to 15 mins in presence of NADPH by LC-MS/MS analysis. Type of series: ADME.

Series [3] can be described thus: Solubility of the compound in phospahte-buffered saline buffer at pH 7.4 by shake flask method. The format is physicochemical. As to conditions: phosphate-buffered saline.

The structures appear in SMILES notation. ≈ marks a conversion by molar mass, not a printed value.

Take `COc1ccc(-c2cc(=O)c3ccccc3o2)cc1OC` [3',4'-DIMETHOXYFLAVONE]: the log(ratio) in the series filed under Homo sapiens is 0.08. Moreover, the inhibition – broadly, the share of the control response that was lost under treatment – at 10 µM is below 15% in series [1] and 18% in series [2].
With `COc1ccc2oc(-c3ccc(OC)c(OC)c3)cc(=O)c2c1`, the log(ratio) in the series filed under Homo sapiens was determined as 0.07. Moreover, the inhibition at 10 µM in series [1] and in series [2] was below 15% throughout.
With `COc1ccc2oc(-c3ccccc3)cc(=O)c2c1` [6-METHOXYFLAVONE], the log(ratio) in the series filed under Homo sapiens is -0.05. In addition, the values for the inhibition at 10 µM in series [1] and in series [2] were 16% and below 15%, respectively.
The like results for `O=c1cc(-c2ccc(Br)cc2)oc2ccc(O)cc12` were, in that order, 0, below 15% and below 15%.
On to `O=c1cc(-c2ccc(O)cc2)oc2ccccc12`, for which the log(ratio) in the series listed under Homo sapiens amounted to 0.05. For the same compound, the inhibition at 10 µM in series [1] and in series [2] was below 15% each time.
Take `O=c1cc(-c2ccccc2O)oc2ccccc12`: in the series filed under Homo sapiens, the log(ratio) is -0.29. For the same compound, the inhibition at 10 µM in series [1] is 24%; in series [2], below 15%.
The corresponding values for `COc1ccc2oc(-c3ccc(Br)cc3)cc(=O)c2c1` are 0.16, below 15% and 17%.
The corresponding values for `O=c1cc(-c2ccc(O)c(O)c2)oc2ccc(O)cc12` are 0.29, below 15% and 26%.
The corresponding values for `COc1ccc(-c2coc3ccccc3c2=O)cc1OC` are 0.22, below 15% and 27%.
As for `COc1ccc(-c2coc3ccccc3c2=O)cc1`, in the series filed under Homo sapiens, the log(ratio) is 0.18. The inhibition at 10 µM in series [1] and in series [2] was below 15% in each case.
As to `COc1cc2oc(-c3ccccc3)cc(=O)c2c(OC)c1OC` [BAICALEIN TRIMETHYL ETHER], the log(ratio) in the series listed under Homo sapiens was -0.09. Further, the inhibition at 10 µM in series [1] and in series [2] was below 15% throughout.
In the case of `COc1ccc(-c2cc(=O)c3ccccc3o2)cc1` [4'-METHOXYFLAVONE], the log(ratio) in the series listed under Homo sapiens was 0.13. Besides, the inhibition at 10 µM turned out to be 20% in series [1] and 27% in series [2].
Consider `COc1ccccc1-c1coc2ccccc2c1=O`, for which, in the series filed under Homo sapiens, the log(ratio) is -0.15. Also, the inhibition at 10 µM in series [1] and in series [2] was below 15% each time.
With `O=c1cc(-c2ccc(O)c(O)c2)oc2ccccc12`, in the series listed under Homo sapiens, the log(ratio) was found to be 0.17. In addition, the inhibition at 10 µM in series [1] came to 19%; in series [2] it was 32%.
With `O=c1c(-c2ccccc2)coc2ccccc12` [ISOFLAVONE], the log(ratio) in the series filed under Homo sapiens was 0.19. The inhibition at 10 µM in series [1] and in series [2] was below 15% each time.
Take `COc1ccc2c(=O)cc(-c3ccccc3)oc2c1` [7-METHOXYFLAVONE]: the results for the inhibition at 10 µM in series [1] and in series [2] were 50% and below 15%, respectively.
Consider `COc1cccc(-c2coc3ccccc3c2=O)c1`, for which, in the series listed under Homo sapiens, the log(ratio) came to 0. The inhibition at 10 µM in series [1] and in series [2] was below 15% throughout.
Take `O=c1cc(-c2ccccc2)oc2ccccc12` [FLAVONE]: the log(ratio) in the series filed under Homo sapiens stood at 0. The inhibition at 10 µM in series [1] and in series [2] was below 15% each time.
On to `O=c1cc(-c2ccccc2)oc2cc(O)ccc12` [7-HYDROXYFLAVONE], for which the inhibition at 10 µM in series [1] is 35%; in series [2], below 15%.
Regarding `COc1ccc(-c2cc(=O)c3cc(OC)ccc3o2)cc1` [6,4'-DIMETHOXYFLAVONE], the log(ratio) in the series listed under Homo sapiens turned out to be 0. Moreover, the inhibition at 10 µM in series [1] and in series [2] was below 15% throughout.
Consider `O=c1cc(-c2ccc(Br)cc2)oc2ccccc12`, for which, in the series filed under Homo sapiens, the log(ratio) amounted to 0.4. Also, the inhibition at 10 µM in series [1] is below 15%; in series [2], 35%.
As to `O=c1cc(-c2ccccc2)oc2cc(O)c(O)c(O)c12` [BAICALEIN], in the series filed under Homo sapiens, the log(ratio) is -0.36. Moreover, the inhibition at 10 µM is 32% in series [1] and below 15% in series [2].
As for `CC(=O)OC[C@@]12CC[C@@]3(C)[C@H]4C(=CC[C@]3(C)[C@H]1[C@H](O)C[C@H]2C(C)C)[C@@]1(C)CCC(=O)C(C)(C)[C@@H]1C[C@@H]4O` [RUBIARBONONE C], at Cytochrome P450 4F2, the IC50 (commonly the concentration needed to halve the response being measured) came out at 4.2 µM.
Turning to `COc1ccc(-c2coc3cc(O)cc(O)c3c2=O)cc1` [BIOCHANIN], in the series listed under Homo sapiens, the log(ratio) is 0.25. The inhibition at 10 µM is below 15% in series [1] and 25% in series [2].
Consider `COc1cccc(-c2cc(=O)c3cc(OC)ccc3o2)c1` [6,3'-DIMETHOXYFLAVONE], for which, in the series listed under Homo sapiens, the log(ratio) was -0.09. Besides, the inhibition at 10 µM in series [1] and in series [2] was below 15% in each case.
Regarding `O=c1cc(-c2ccccc2)oc2ccc(O)cc12` [6-HYDROXYFLAVONE], in the series listed under Homo sapiens, the log(ratio) is -0.01. The inhibition at 10 µM is 15% in series [1] and below 15% in series [2].
The like results for `O=c1c(-c2ccc(O)cc2)coc2cc(O)cc(O)c12` [GENISTEIN] were, in that order, 0.49, below 15% and 39%.
As for `COc1ccccc1-c1cc(=O)c2ccccc2o1`, in the series filed under Homo sapiens, the log(ratio) was -0.4. The inhibition at 10 µM was 37% in series [1] and below 15% in series [2].
The like results for `Cc1ccc(-c2cc(=O)c3ccccc3o2)cc1` were, in that order, 0.07, 26% and 32%.
Regarding `COc1ccc2oc(-c3ccc(C(F)(F)F)cc3)cc(=O)c2c1`, the log(ratio) in the series filed under Homo sapiens turned out to be 0.59. Further, the thermodynamic solubility (usually solubility found after equilibrating the solid with the medium) in series [3] amounted to 1 µM (≈ 0.32 µg/mL). Besides, the figures for the inhibition at 10 µM in series [1] and in series [2] were below 15% and 55%, respectively.
